Experimental data: patent publication EP2823816A1, “Inhibitors of Neuropilin and use thereof for the treatment of Neuropilin-related diseases” (Tragex Pharma, priority 2013, dated 2015)

Legend:
[1] = tested on: MDA-MB-231; assay: WST-1 proliferation / cytotoxic test; assay type: cell-based, human; details: for IC50: Homo sapiens
Experimental: (§1) After observation of cells under the microscope, old media were removed and the adherent cells washed gently twice with PBS (Phosphate Buffer Saline, -Ca^2+, -Mg^2+, Lonza cat n°: 17-512F/12). All cells were detached with 3 ml of trypsin/EDTA (chelator of calcium and magnesium ions) (Lonza), incubated for 5 min at 37°C, and examined using a microscope to ensure that the cells were detached and floating. Then, 3 ml TNS (Trypsin Neutralizing Solution, Lonza, France, cat n° CC-5002) or of culture medium were added to inactivate the trypsin, and the cell suspension was transferred in a falcon tube and centrifuged for 7 min at 1400 rpm. The supernatant was removed and the cell pellet resuspended in […] of culture medium. 50 µL of this solution were transferred in 20 µL of isotonic solution and the cells were counted by count cellular (Beckman Coulter). […]
(§2) The cell proliferation WST-1 assay is a colorimetric assay for the quantification of cell proliferation and viability, based on the enzymatic cleavage of the tetrazolium salt WST-1 added to the culture medium, to a water soluble colored formazan dye, detected by absorbance at 450 nm, by mitochondrial succinate-tetrazoliumreductase in viable cells. […]
After an incubation period of 72 h, at day 4, were prepared the 19 mL medium with reagent WST-1 1mL (10 mL WST-1 in 200 mL well). […] The cells were incubated at 37°C in a humidified atmosphere of 5% CO2 for 1h30 and the absorbance at 450-655 nm was measured by Microplate Manager 5.2 (Bio-Rad).

[2] = tested on: HUVEC cells; assay: Adhesion test (crystal violet); assay type: cell-based; details: in vitro, Figure 1A
Experimental: as §1
After an incubation period of 72 h, the adherent cells were fixed with […] paraformaldehyde 3% for 15 min at room temperature. […] The microplate was stirred to obtain a homogenous solution and absorbance was quantified at 580 nm by Microplate Manager 5.2. The percentage of inhibition was calculated as follow: % inhibition = 100-[(DOsample/DOcontrol)*100]. […]

[3] = tested on: HUVEC cells; assay: WST-1 proliferation assay; assay type: cell-based; details: in vitro, Figure 1B
Experimental: as §1, §2

[4] = tested on: MDA-MB-231 cancer cells; assay: Motility assay (videomicroscopy); assay type: cell-based, human; details: MDA-MB-231, 24 h, at the IC50 of the proliferation assay, Figure 4
Experimental: Endothelial cells (HUVEC) and breast cancer cells (MDA-MB-231) were seeded in 35 mm diameter tissue culture dishes at 3×10^4 and 6×10^4 cells per dish respectively and treated separately with DMSO (control) and compound 1 of the invention (treatment) for 24 h, at the concentration of IC50 obtained with the proliferation assay.
The dishes were placed in an enclosed warming incubator on the motorized stage of a computer-controlled Eclipse Ti inverted microscope (Nikon Instruments Europe) equipped with a CCD Cool- SNAP HQ2 camera (Roper Scientific, USA) and a PC workstation. The incubator allowed samples to be kept at 37°C in a humidified atmosphere containing 5% CO2, 95% air. Phase images were recorded at 100× every 5 min simultaneously over several fields from 0 till 24 h (288 frames). Cell motility was tracked and analyzed for at least 25 cells in each field over three independent experiments. The total distance of migration and the speed of migration were analyzed. The degree of persistence of movement was defined as the ratio between the linear distance and the total distance covered by the cells. Image acquisition and analyses were carried out using Metamorph7 software (Universal Imaging).

[5] = In vivo xenograft study, body weight; details: NOD-SCID IL-2Rγ-/- mice, both tested doses (10 or 50 mg/kg), oral gavage three times a week, Figure 5A
Experimental: Female (NOD-SCID, IL-2Rγ^-/-) mice 5-6 weeks old were injected subcutaneously with MDA-MB-231 cells (5.10^6) at a single site on their right flanks. Tumors were allowed to grow to about 100 mm^3 before being pair-matched by tumor size into treatment groups (8 mice/group). One group was treated with vehicles (8 mice receiving cremofor 12.5%/ethanol 12.5%/ H2O), one group was treated with 10 mg/kg of the compound 1 of the invention (8 mice receiving compound 1 + cremofor 12.5%/ethanol 12.5%/ H2O), one group was treated with 50 mg/kg of the compound 1 of the invention (8 mice receiving compound 1+ cremofor 12.5%/ethanol 12.5%/ H2O). All groups received 3 times a week by oral gavages approximately 100 µL of a solution containing the compound 1 of the invention. Mice were weighed regularly to assess toxicity of the treatments and the tumors were measured with calipers (width x width x length x Pi/6) to determine tumor growth. Mice survival was assessed during the study and metastatic development was investigated in lung, spleen and liver.

SMILES: CCOc1ccccc1NC(=O)c1ccc(C)c(S(=O)(=O)Nc2ccc(C)cc2)c1 [Compound 1, N-(2-ethoxyphenyl)-4-methyl-3-(N-(p-tolyl)sulfamoyl)benzamide]
- IC50 ([1]; Breast, MDA-MB-231, wst-1 cytotoxic test, 72 h): 700 ± 80 nM
- IC50 ([1]; inhibition of proliferation, clone MDA-MB-231 (Table 2)): 700 ± 50 nM
- proliferation of MDA-MB-231 cells ([1]; in vitro, Figure 3B): inhibits
- adhesion of HUVEC cells [2]: inhibited
- proliferation of HUVEC cells [3]: inhibited
- motility of cancer cells (migration speed) [4]: significant anti-migratory effect
- body weight (toxicity) [5]: no significant change in body weight
